In brackets after ≈: the same amount, converted by molar mass.
How the values were obtained:
Type in all cases: cell-based
S. aureus = test: MIC values, S. aureus (Tables 1-4)
S. pneumo. = test: MIC values, S. pneumo. (Tables 1-4)
E. faecalis = test: MIC values, E. faecalis (Tables 1-4)
H. flu = test system: H. flu
E. coli = test: MIC values, E. coli (Tables 1-4)

SMILES | MIC S. aureus (S. aureus) | MIC S. pneumo. (S. pneumo.) | MIC E. faecalis (E. faecalis) | MIC H. flu (H. flu) | MIC E. coli (E. coli)
CO[C@H]1/C=C/O[C@@]2(C)Oc3c(C)c(O)c4c(=O)c(c5oc6cc(N7CCC(C)(NC(C)=O)CC7)cc(O)c6nc-5c4c3C2=O)NC(=O)/C(C)=C\C=C\[C@H](C)[C@H](O)[C@@H](C)[C@@H](O)[C@@H](C)[C@H](O)[C@@H]1C [Compound 74] | 30 ng/mL (≈ 0.0329 µM) | 1 ng/mL (≈ 0.0011 µM) | 0.5 µg/mL (≈ 0.548 µM) | 0.12 µg/mL (≈ 0.131 µM) | >8 µg/mL
CO[C@H]1/C=C/O[C@@]2(C)Oc3c(C)c(O)c4c(=O)c(c5oc6cc(N7CC[C@@H](N(C)C)C7)cc(O)c6nc-5c4c3C2=O)NC(=O)/C(C)=C\C=C\[C@H](C)[C@H](O)[C@@H](C)[C@@H](O)[C@@H](C)[C@H](OC(C)=O)[C@@H]1C [Compound 75] | 2 ng/mL (≈ 0.00219 µM) | 0.12 ng/mL (≈ 0.000131 µM) | 0.12 µg/mL (≈ 0.131 µM) | 0.25 µg/mL (≈ 0.274 µM) | 4 µg/mL (≈ 4.38 µM)
COC1C=COC2(C)Oc3c(C)c(O)c4c(=O)c(c5sc6cc(N7CCN8CCCC8C7)ccc6nc-5c4c3C2=O)NC(=O)C(C)=CC=CC(C)C(O)C(C)C(O)C(C)C(OC(C)=O)C1C (stereo not drawn) [Compound 76] | 8 ng/mL (≈ 0.00865 µM) | 0.25 ng/mL (≈ 0.00027 µM) | 0.5 µg/mL (≈ 0.54 µM) | 0.25 µg/mL (≈ 0.27 µM) | 4 µg/mL (≈ 4.32 µM)
COC1C=COC2(C)Oc3c(C)c(O)c4c(=O)c(c5sc6cc(N7CCN8CCCC8C7)ccc6nc-5c4c3C2=O)NC(=O)C(C)=CC=CC(C)C(O)C(C)C(O)C(C)C(O)C1C (stereo not drawn) [Compound 77] | 2 ng/mL (≈ 0.00226 µM) | 0.25 ng/mL (≈ 0.000283 µM) | 0.25 µg/mL (≈ 0.283 µM) | 0.12 µg/mL (≈ 0.136 µM) | 2 µg/mL (≈ 2.26 µM)
COC1C=COC2(C)Oc3c(C)c(O)c4c(=O)c(c5oc6cc(N7CCN8CCCC8C7)cc(O)c6nc-5c4c3C2=O)NC(=O)C(C)=CC=CC(C)C(O)C(C)C(O)C(C)C(O)C1C (stereo not drawn) [Compound 87] | 2 ng/mL (≈ 0.00226 µM) | 0.25 ng/mL (≈ 0.000283 µM) | 0.03 µg/mL (≈ 0.034 µM) | 0.25 µg/mL (≈ 0.283 µM) | 4 µg/mL (≈ 4.53 µM)
COC1C=COC2(C)Oc3c(C)c(O)c4c(=O)c(c5oc6cc(N7CCN8CCCC8C7)cc(O)c6nc-5c4c3C2=O)NC(=O)C(C)=CC=CC(C)C(O)C(C)C(O)C(C)C(O)C1C (stereo not drawn) [Compound 88] | 4 ng/mL (≈ 0.00453 µM) | 0.25 ng/mL (≈ 0.000283 µM) | 0.03 µg/mL (≈ 0.034 µM) | 0.25 µg/mL (≈ 0.283 µM) | 8 µg/mL (≈ 9.06 µM)
CO[C@H]1/C=C/O[C@@]2(C)Oc3c(C)c(O)c4c(=O)c(c5oc6cc(N7CCN(Cc8ccccc8)CC7)cc(O)c6nc-5c4c3C2=O)NC(=O)/C(C)=C\C=C\[C@H](C)[C@H](O)[C@@H](C)[C@@H](O)[C@@H](C)[C@H](O)[C@@H]1C [Compound 89] | 30 ng/mL (≈ 0.0322 µM) | 1 ng/mL (≈ 0.00107 µM) | >8 µg/mL | 8 µg/mL (≈ 8.57 µM) | >8 µg/mL
CO[C@H]1/C=C/O[C@@]2(C)Oc3c(C)c(O)c4c(=O)c(c5oc6cc(N7C[C@@H](C)N[C@@H](C)C7)cc(O)c6nc-5c4c3C2=O)NC(=O)/C(C)=C\C=C\[C@H](C)[C@H](O)[C@@H](C)[C@@H](O)[C@@H](C)[C@H](O)[C@@H]1C [Compound 90] | 8 ng/mL (≈ 0.00918 µM) | 0.5 ng/mL (≈ 0.000574 µM) | 0.06 µg/mL (≈ 0.0689 µM) | 0.25 µg/mL (≈ 0.287 µM) | 4 µg/mL (≈ 4.59 µM)
CC[C@@H]1CN(c2cc(O)c3nc4c5c6c7c(C)c(O)c5c(=O)c(c-4oc3c2)NC(=O)/C(C)=C\C=C\[C@H](C)[C@H](O)[C@@H](C)[C@@H](O)[C@@H](C)[C@H](O)[C@H](C)[C@@H](OC)/C=C/O[C@@](C)(O7)C6=O)C[C@H](CC)N1 [Compound 91] | 30 ng/mL (≈ 0.0334 µM) | 0.5 ng/mL (≈ 0.000556 µM) | 0.12 µg/mL (≈ 0.133 µM) | 0.25 µg/mL (≈ 0.278 µM) | 4 µg/mL (≈ 4.45 µM)
